Patent US20220280561A1, “COPPER-ATSM FOR TREATING NEURODEGENERATIVE DISORDERS ASSOCITED WITH MITOCHONDRIAL DYSFUNCTION” (RESEARCH INSTITUTE AT NATIONWIDE CHILDREN'S HOSPITAL, priority 2019, published 2022)

How the values were obtained:
Assay type in all cases: cell-based, human
[1] = tested on: IRF2BPL (NEDAMSS) astrocytes; assay: Seahorse basal and ATP-linked respiration, IRF2BPL (NEDAMSS) astrocytes; conditions: all IRF2BPL (NEDAMSS) astrocytes, treated vs not treated
Description: FIG. 21A) Schematic image of the seahorse assay. The base oxygen consumption rate was measured (FIG. 21B). ATP linked respiration was measured following mitochondrial shutdown using oligomycin and was calculated by subtracting the oligo OCR from basal OCR (FIG. 21C). Both basal and/or ATP-linked respiration was elevated in three of the four patient lines tested. iAstrocytes pretreated with CuATSM (dashed bars on the graph) had significant reduction in basal and/or ATP-linked respiration (FIG. 21C). Data represents a minimum of 2 independent experiments.
Next, the effect of CuATSM treatment on basal and/or ATP-linked respiration in NEDAMSS astrocytes was investigated. […] The base oxygen consumption rate (FIG. 21B) was measured at three time points for healthy and NEDAMSS patients astrocytes either treated or not treated with CuATSM. ATP linked respiration was measured by subtracting the […] (FIG. 21C). […] This beneficial response may be due to a mutation specific alteration in one of the other pathways described herein that cuATSM affects that results in another abnormal pathway targeted by CuATSM.

SCN2A induced neurons = assay: chemical differentiation of SCN2A patient fibroblasts to iNeurons, neuron survival; conditions: 0.01% of CuATSM on days five and seven of differentiation
Description: FIG. 8A) Schematic protocol of iNeuron reprogramming from patient fibroblasts. Fibroblast cells were seeded on 12-well plates and differentiated for 7 days into iNeurons. iNeurons were fixed and imaged/immunostained for Tuj1 neuronal marker. FIG. 8B) Representative images of fibroblasts (before) and iNeurons after reprogramming. FIG. 8C) Representative bright field images of iNeurons following seven days of differentiation (scale bar=50 μm). On day five of differentiation, cells were treated with 0.01% of CuATSM as well as on day seven. FIG. 8D) Quantification of neuron survival percentage after seven days of differentiation. Tuj1 positive cells from three to five different images per line were counted and data was normalized to the average count of healthy control. […] 24 hours later mouse neurons were seeded on top of astrocyte monolayer and viability was determined following 3 days in culture. […]
Neuronal differentiation was performed as previously described (Hu et. al. 2016). […] At 5-7 days neurons were imaged and the number of cells expressing neuronal markers such as Tuj1 and Map2 and contained neurite outgrowths greater than two times the soma were counted.
The effect of CuATSM treatment on SCN2A iAstrocytes mediated neuron toxicity was investigated. […] Neuron survival was quantified following seven days of differentiation by counting cells with neurites two times the soma length. […]

SCN2A iAstrocytes = assay: Seahorse basal and ATP-linked respiration, SCN2A iAstrocytes; conditions: SCN2A iAstrocytes vs corresponding untreated controls; restored to healthy levels
Description: Astrocytes treated with and without CuATSM were seeded on a 96 well Seahorse plate for extracellular flux analysis. Basal oxygen consumption (FIG. 6A) was measured at three time points followed by ATP synthase inhibition using oligomycin. The difference between basal respiration and oligomycin addition was used to calculate ATP linked respiration (FIG. 6B). […] All experiments were run at least in duplicate. Statistical analysis comparing treated and untreated individual patient lines was performed using student T-test.
Mitochondrial function: Induced astrocytes were seeded on 24 well seahorse plates in quadruplicate or a 96 well seahorse plate in quintuplicate as summarized in FIG. 9C. Twenty-four hours later media was replaced with seahorse base media containing 10 Mm glucose and 2 Mm glutamine. Oligomycin (1 Um), FCCP (5 Um) and antimycin A (10 Um) were injected separately to evaluate oxygen consumption following inhibition of the ATPase synthase, mitochondrial uncoupling and total shutdown of the electron transport chain. Alternatively, iAstrocyte media was replaced with a mitochondrial buffer (220 Mm mannitol, 70 Mm sucrose, 10 Mm KH2PO4, 5 Mm Hepes, 1 Mm EGTA and 0.2% Fatty acid free BSA) to measure complex IV dependent oxygen consumption. […] Oxygen consumption was measured in both assays using the Seahorse XF and Seahorse XFe. […]

Compound: CN=C([S-])N/N=C(C)/C(C)=N/NC([S-])=NC.[Cu+2] [CuATSM, diacetyl-bis(4-methylthiosemicarbazonato) copperII]
- ATP-linked respiration [1]: reduce
- basal respiration [1]: reduce
- neuron survival after seven days of differentiation (SCN2A induced neurons): increase neuronal survival
- ATP-linked respiration (SCN2A iAstrocytes): reduced
- basal respiration (SCN2A iAstrocytes): reduced
